Experiments:
5-HT1A receptors [1] = molecular target: T1, 5-HT1A receptors (Rattus norvegicus, UniProt P19327); assay: Spontaneous tail flick test (STF), agonist and antagonist activity; assay type: in vivo, male Wistar rats; design: from tissue; host or cells: whole animal, male Wistar rat (in vivo); conditions: for Spontaneous tail flicks M.E.D.: agonist: induction of STF, s.c., minimum effective dose; for ED50: rat, sc, 1 h, antagonist: inhibition of STF induced by 8-OH-DPAT 0.63 mg/kg s.c., compound s.c. 60 min before test, read-out: Spontaneous tail flicks ID50 (95% C.L.)
T1 sequence (P19327 1-422): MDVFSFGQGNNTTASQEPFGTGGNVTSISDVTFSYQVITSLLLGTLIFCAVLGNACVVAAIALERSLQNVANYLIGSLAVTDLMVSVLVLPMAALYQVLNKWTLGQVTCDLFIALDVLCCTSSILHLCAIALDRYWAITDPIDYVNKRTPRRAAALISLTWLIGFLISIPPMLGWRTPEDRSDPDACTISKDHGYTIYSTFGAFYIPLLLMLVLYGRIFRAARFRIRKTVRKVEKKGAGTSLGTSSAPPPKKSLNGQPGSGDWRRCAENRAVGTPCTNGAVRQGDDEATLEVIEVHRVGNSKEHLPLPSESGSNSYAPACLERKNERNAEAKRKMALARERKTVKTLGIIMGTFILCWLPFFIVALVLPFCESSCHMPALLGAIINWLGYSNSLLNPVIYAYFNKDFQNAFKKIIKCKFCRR
Experimental: (§1) The tests were carried out on male Wistar rats weighing from 200 to 220 g which had free access to food and drinking water, in standard cages.
(§2) The animals are housed individually for the hypothermia, corticosterone secretion and flat body posture tests, and in groups of three for the tail flick test.
(§3) The laboratory temperature is kept at 21°±1° C., with 60 ±5% humidity. The rats are subjected to a light/dark cycle of 12 hours/12 hours (the light cycle commencing at 7.30 a.m.).
(§4) a/ General procedure for tests of agonist and antagonist activities on 5-HT1A receptors.
(§5) The test compounds were administered subcutaneously (s.c.) 60 minutes before the start of the test, that is to say 30 minutes before the vehicle (agonist responses) or 8-OH-DPAT (antagonist responses).
(§6) In all the tests, the solvent is used in parallel as the control. The animals were allowed to rest in their cages during the time between the injections and evaluation.
(§7) For the agonist studies, the solvent was administered at a dose of 1 ml/kg s.c. 30 minutes before the start of the test. For the antagonist studies, doses of 8-OH-DPAT inducing sub-maximal responses were chosen, i.e. doses of 0.63, 0.16, 0.16 and 0.16 mg/kg s.c. for the tail flick test, the flat body posture test, the corticosterone secretion test and the hypothermia test, respectively.
Tail flicks were determined in animals restrained in horizontal, opaque plastics cylinders, the animals' tails hanging freely over the edge of the laboratory bench. After a 5-minute adaptation period, the number of movements made in 5 minutes is recorded. One STF is defined as the raising of the tail to a level higher than the level of the body axis [Millan M. J. et al., J. Pharmacol. Exp. Ther., 256, 973-982 (1990)].
(§8) In general, after variance analysis, the results are subjected to Dunnett's test. Results are regarded as significant if p<0.05.
(§9) The doses of the test compounds are all expressed in terms of the base. Unless otherwise mentioned, all the compounds were dissolved in sterile water (to which a few drops of lactic acid are added, if necessary) and administered at a volume of 1 ml/kg s.c..

5-HT1A receptors [2] = molecular target: T1, 5-HT1A receptors; assay: Flat body posture (FBP), agonist response and antagonism of 8-OH-DPAT; assay type: in vivo, male Wistar rats; design: from tissue; host or cells: whole animal, male Wistar rat (in vivo); conditions: sc
Experimental: as §1, §2, §3, §4, §5, §6, §7
(§10) The same animals were employed for the evaluation of the effect of the test compounds on the FBP and for the determination of the plasma levels of CS. All the tests were carried out in the morning between 10.30 and 12.30, i.e. when the cicardian levels of CS are at their lowest.
25 minutes after the treatment (i.e. 5 minutes before decapitation), the animals are observed in their cages and the presence or absence of FBP is noted.
(§11) The presence of FBP is defined by a characteristic posture of the animal. The animal is then in a position of ventral decubitus with the hind limbs clearly in extension. 5 minutes after observation of FBP, the animals are decapitated and the trunk blood is collected in chilled tubes containing 50 μl of a 10% EDTA solution. After centrifugation at 4000 rpm, the plasma is removed and stored at -30° C. until assay.
as §8
For the dose-response for induction and inhibition of FBP, the effective doses 50 (ED50) (doses at which 50% of the animals show a response) were calculated by the method of Litchfield and Wilcoxon.
as §9

5-HT1A receptors [3] = molecular target: T1, 5-HT1A receptors; assay: Corticosterone secretion (CS), plasma, agonist and antagonist activity; assay type: in vivo, male Wistar rats; design: from tissue; host or cells: whole animal, male Wistar rat (in vivo); conditions: for Corticosterone secretion M.E.D.: agonist: induction of CS, s.c., minimum effective dose; for ED50: rat, sc, 1 h, antagonist: inhibition of CS induced by 8-OH-DPAT 0.16 mg/kg s.c., compound s.c. 60 min before test, read-out: Corticosterone secretion ID50 (95% C.L.)
Experimental: as §1, §2, §3, §4, §5, §6, §7, §10, §11
CS was determined using a radio-competitive assay for a CS-binding protein in plasma: transcortin. The latter is obtained from monkey serum. Separation of the CS-transcortin complexes from free CS was effected by means of a solution of dextran and active charcoal. The detection limit was 50 pg/tube. Intra- and inter-assay variations were 5 and 15%, respectively [cf. Rivet J. M. et al., Eur. J. Pharmacol., 183, 634-635 (1990)].
Since the base levels of CS in plasma are never zero, the following formula was used to calculate the percentage inhibition of plasmatic CS induced by 8-OH-DPAT: [formula]
as §8, §9

5-HT1A receptors [4] = molecular target: T1, 5-HT1A receptors; assay: Body temperature (hypothermia), agonist and antagonist activity; assay type: in vivo, male Wistar rats; design: from tissue; host or cells: whole animal, male Wistar rat (in vivo); conditions: for Hypothermia M.E.D.: agonist: induction of hypothermia, s.c., minimum effective dose; for ED50: rat, sc, 1 h, antagonist: inhibition of hypothermia induced by 8-OH-DPAT 0.16 mg/kg s.c., compound s.c. 60 min before test, read-out: Hypothermia ID50 (95% C.L.)
Experimental: as §1, §2, §3, §4, §5, §6, §7
The rats are immobilised and a lubricated digital thermometer (Thermistoprobe from Testotherm, Basle, Switzerland) is inserted into the rectum to a depth of 5 cm. 30 seconds after insertion, the temperature is read off a digital scale. The percentage inhibition is calculated with the aid of the formula mentioned above.
as §8, §9

5-HT1A receptors [5] = molecular target: T1, 5-HT1A receptors; assay: In vitro binding test, 5-HT1A receptors, [3]H-8-OH-DPAT, rat hippocampus membranes; design: Hippocampus from the brains of decapitated rats; from tissue; host or cells: rat hippocampus membranes (male Wistar); species or system rat (male Wistar); conditions: for Affinity (pKi): hot ligand [3]H-8-OH-DPAT 0.4 nM, rat hippocampus membranes, 25° C., 30 minutes
Experimental: Hippocampus from the brains of decapitated rats was immediately frozen on dry ice and then stored at -80° C. until preparation of membranes. The tissue was homogenised at 4° C. in the appropriate buffer using a Polytron (Brinkman Instruments - Lucerne - Switzerland) and centrifuged at 20,000 rpm.
Incubation was carried out at 25° C. for 30 minutes. Non-specific binding was defined by 10 μM of 5-HT. The tests were terminated by rapid filtration by means of a Brandel harvester over glass-fibre filters pretreated with 0.1% polyethyleneimine.
The inhibitory concentration 50 values (IC50) were determined according to method 8 of Tallarida R. J. and Murray R. B., Manual of pharmacological calculations with computer programs, Springer Verlag, N.Y. (1987).
The pKi was calculated according to the formula [formula] where [L] is the concentration of the hot ligand ([3]H-8-OH-DPAT, 0.4 nM) and Kd is the apparent dissociation constant determined from saturation experiments.
The test substances were dissolved in the incubation buffer.

5-HT1A receptors [6] = molecular target: T1, 5-HT1A receptors; assay: Overall agonist/antagonist behaviour at 5-HT1A receptors (in vivo tests); design: from tissue; host or cells: whole animal, male Wistar rat (in vivo); species or system male Wistar rats; conditions: conclusion from Tables 1 and 2
Experimental: as §4, §5, §6, §7

[7] = 1 h, read-out: Flat body posture ED50 (95% C.L.), antagonism of 8-OH-DPAT, inhibition of FBP, 8-OH-DPAT 0.16 mg/kg s.c., compound s.c. 60 min before test
[8] = induction of FBP, s.c., dose at which 50% of the animals show a response, read-out: Flat body posture ED50 (95% C.L.), agonist response

Row | ED50 (5-HT1A receptors [4]) [mg/kg] | Affinity (pKi) (5-HT1A receptors [5]) | SMILES | Spontaneous tail flicks M.E.D. (5-HT1A receptors [1]) [mg/kg] | ED50 (5-HT1A receptors [1]) [mg/kg] | ED50 (5-HT1A receptors [2]; [7]) [mg/kg] | ED50 (5-HT1A receptors [2]; [8]) [mg/kg] | Corticosterone secretion M.E.D. (5-HT1A receptors [3]) [mg/kg] | ED50 (5-HT1A receptors [3]) [mg/kg] | Hypothermia M.E.D. (5-HT1A receptors [4]) [mg/kg] | Ki (5-HT1A receptors [5]) [nM] | Behaviour towards 5-HT1A receptors (5-HT1A receptors [6])
1 | 4.36 | 8.42 | c1ccc2c(c1)CC(N1CCN(c3cccc4c3OCCCO4)CC1)C2 [Example 9, 4-[benzo(1,5)dioxepin-6-yl]-1-(indan-2-yl)-piperazine] | > 10.0 | 1.59 | < 2.5 | > 2.5 | > 2.5 | > 2.5 | 5.0 |  | 
2 | 0.58 | 9.18 | c1ccc2c(c1)CC(CCN1CCN(c3cccc4c3OCCO4)CC1)C2 [Example 20, 4-(benzodioxan-5-yl)-1-[2-(indan-2-yl)-ethyl]-piperazine] |  | 0.18 | < 2.5 | > 2.5 | > 2.5 | < 2.5 | 10.0 |  | 
3 |  |  | O=C1CC2(CCCC2)CC(=O)N1CCCCN1CCN(c2ncccn2)CC1 [buspirone, reference compound] | > 10.0 | 3.71 | > 10 | 7.4 | > 2.5 | > 10 | 2.5 |  | agonist behaviour

Row | SMILES | ED50 (5-HT1A receptors [4]) [mg/kg] | Affinity (pKi) (5-HT1A receptors [5]) | Spontaneous tail flicks M.E.D. (5-HT1A receptors [1]) [mg/kg] | ED50 (5-HT1A receptors [1]) [mg/kg] | ED50 (5-HT1A receptors [2]; [7]) [mg/kg] | ED50 (5-HT1A receptors [2]; [8]) [mg/kg] | Corticosterone secretion M.E.D. (5-HT1A receptors [3]) [mg/kg] | ED50 (5-HT1A receptors [3]) [mg/kg] | Hypothermia M.E.D. (5-HT1A receptors [4]) [mg/kg] | Ki (5-HT1A receptors [5]) [nM] | Behaviour towards 5-HT1A receptors (5-HT1A receptors [6])
4 | c1ccc2c(c1)CC(CN1CCN(c3cccc4c3OCCO4)CC1)C2 [Example 14, 4-(benzodioxan-5-yl)-1-[(indan-2-yl)-methyl]-piperazine] | < 2.5 |  |  | 0.19 | ≥ 2.5 | > 2.5 | > 2.5 | > 2.5 | > 10.0 | 3.39 | 
